Reference: US9724262B2, “Methods of diagnosing and treating neonatal reversion to fetal consciousness” (The Regents of the University of California, priority 2013, dated 2017)

Tests used:
[1] = test system: healthy neonatal foal; assay: Neurobehavioural (NB) scoring of a healthy neonatal foal infused i.v. with allopregnanolone; assay type: in vivo, Quarter Horse
Experimental: A healthy neonatal 50 kg Quarter Horse colt from the research herd at the School of Veterinary Medicine, University of California, Davis was selected for the infusion. The foal was born from a healthy Quarter Horse mare with a normal gestational length without complications, and normal observed parturition except that the placental passage was prolonged. Although retention of the placenta for 7 h post birth is not considered normal by most standards, the placenta was evaluated and determined to be complete and normal. […] The foal was deemed healthy based upon complete physical and neurological examinations immediately post birth. […] Repeat physical and neurological examinations at age 6 h, immediately prior to infusion, were also normal.
(§1) Intravenous catheters were placed aseptically in the right jugular vein for sample collection and in the left jugular vein for infusion of allopregnanolone. Allopregnanolone (5 alpha-pregnan-3 alpha-ol-20-one; Steraloids Inc., Newport, R.I., USA) was dissolved in an ethanol-based solution to a total concentration of 9 mg/ml. Infused dose and concentration of allopregnanolone in this foal were determined based on concentrations reported in in vivo studies in the modulation of the HPA axis in male rats (Naert, et al., (2007) Psychoneuroendocrinology 32, 1062-1078). An initial bolus of 0.05 mg/kg bwt i.v. of allopregnanolone was given followed by a constant rate infusion (CRI) of 0.02 mg/kg bwt/min using an infusion pump. Based on clinical effects of the initial dosage, a second bolus of 0.1 mg/kg bwt i.v. was given after 5 min and followed by a CRI of 0.04 mg/kg bwt/min for 5 min. The infusion was discontinued for 30 min to allow observation of any neurobehavioural (NB) alterations, and then a final bolus of 0.2 mg/kg bwt i.v. was given.
Neurobehavioural alterations were recorded and graded through a NB scoring system developed by the authors for the assessment of foals with NMS (Table 2). From preliminary work, foals with NMS had scores>8 from a range of 0 (normal foal) to 20 (comatose with paroxysmal activity). Mentation was defined as: normal if the foal was alert and responsive; quiet to obtunded if the foal was apparently lethargic but responsive to external stimuli (e.g., touch, sound); stuporous if level of consciousness was decreased but responsive to painful stimuli (e.g. pinching skin with haemostats); and comatose if the foal lost consciousness and was unresponsive to any stimuli. Paroxysmal activity was defined as abnormal events such as seizures or seizure-like activity, rhythmic limb movements, tremors or paddling. The NB scores were calculated at 5 min intervals throughout the infusion period. Following the infusion, the foal was observed hourly for the first 6 h and then at 12 h intervals for 2 days.
For NB comparison, a second age-matched clinically healthy neonatal Quarter Horse colt was infused with 99.9% ethanol diluted with 0.9% saline to a final concentration of 5% ethanol without allopregnanolone. Infusion of this solution followed the same protocol (dosage [based on 5% ethanol] and rate) of administration as for the first foal. The study was approved by an Animal Care and Use protocol from University of California, Davis.

[2] = Plasma steroid and hormone concentrations (LC-MS) in the foal infused with allopregnanolone; assay type: in vivo, Quarter Horse
Experimental: as §1
Heparinised blood samples were collected at birth, age 6 h and at 15 min intervals during the infusion. Blood was immediately centrifuged following collection and plasma stored at −80° C. until analysed by liquid chromatography mass spectrometry (LC-MS) utilising on-line sample extraction by turbulent flow chromatography (TFC) and detection by select reaction monitoring (SRM) on a triple quadrupole mass spectrometer. […] Free concentrations of 34 steroids were monitored in one analytical method over a 24-min run time. Detection and quantitation was accomplished using 3 or more SRM transitions per compound for all compounds other than 17-hydroxy pregnenolone where single ion monitoring (SIM) was utilised. This method was validated and the following assessed for each analyte: linearity, limit of detection, limit of quantitation, accuracy, precision, matrix effects, extraction recovery and potential endogenous interferences. […]

[3] = age 6 ½ h, 15 minutes post initial infusion

Structure (SMILES): CC(=O)[C@H]1CC[C@H]2[C@@H]3CC[C@H]4C[C@H](O)CC[C@]4(C)[C@H]3CC[C@]12C [allopregnanolone, 5 alpha-pregnan-3 alpha-ol-20-one]
- Time after cessation of the infusion to signs of increased responsiveness ([1]; after cessation of the infusion): ≤ 8 min
- Neurobehavior score ([1]; age 6 ¼ h, bolus 0.05 mg/kg IV, CRI 0.02 mg/kg/min, score scale 0-20): 14
- Neurobehavior score [1, 3]: 8
- Neurobehavior score ([1]; age 6 ¾ h, bolus 0.2 mg/kg IV): 15
- NB score ([1]; by 15 min after cessation of the infusion or the final bolus, standing, mild obtundation): 9
- NB score ([1]; by 30 min after infusion, foal appeared normal): 0
- NB score ([1]; infusion of higher concentrations (0.1 and 0.2 mg/kg bwt), foal recumbent, stuporous, unresponsive): 16
- Long-term NB effects following the infusion ([1]; observed hourly for 6 h, then at 12 h intervals for 2 days): No long-term NB effects were observed
- Allopregnanolone plasma concentration ([2]; age 6 ¼ h, bolus 0.05 mg/kg IV, CRI 0.02 mg/kg/min): 478,909 pg/mL
- Allopregnanolone plasma concentration [2, 3]: 126,566 pg/mL
- Allopregnanolone plasma concentration ([2]; age 6 ¾ h, bolus 0.2 mg/kg IV): 466,208 pg/mL
